# In patent US6893846B2, “Primers for use in detecting beta-lactamases” (priority 1998, dated 2005):
# Where two headings read alike, the source gives them in different places.
# How the values were obtained:
# K. pneumoniae 225 [1] = experiment: NCCLS microdilution susceptibility test; type: cell-based, Klebsiella pneumoniae; settings: Klebsiella pneumoniae, 225
# K. pneumoniae 225 [2] = experiment: NCCLS disk diffusion assay; type: cell-based, Klebsiella pneumoniae; settings: disk diffusion, Kleb 225
# K. pneumoniae = experiment: Agar dilution MIC, South African isolates; type: cell-based, Klebsiella pneumoniae; settings: tzp with tazobactam 4 μg/ml
# Source text: (§1) The strains were provided in response to a request for all strains of Enterobacteriaceae, lacking inducible beta-lactamases, that were intermediate or resistant to cefotaxime or ceftazidime. […]
# E. coli = experiment: Agar dilution MIC, South African isolates; type: cell-based, Escherichia coli; settings: tzp with tazobactam 4 μg/ml
# Source text: as §1
# P. mirabilis = experiment: Agar dilution MIC, South African isolates; type: cell-based, Proteus mirabilis; settings: 4 strains, tzp with tazobactam 4 μg/ml
# Source text: During a period of three months in 1993, […] strains of Klebsiella pneumoniae (13 blood, 5 burn, 7 wound, 11 tracheal isolates), 4 strains of Proteus mirabilis (all wound isolates) and 4 strains of Escherichia coli (1 blood, 1 burn, 2 wound isolates) were collected from patients at the following medical centers in South Africa: Tygerberg Hospital near Cape Town, King Edward VIII Hospital in Durban, Chris Hani Baragwanath Hospital in Soweto and Pretoria Academic Hospital in Pretoria. The strains were provided in response to a request for all strains of Enterobacteriaceae, lacking inducible beta-lactamases, that were intermediate or resistant to cefotaxime or ceftazidime. […] Therefore accurate prevalence data were not obtained.
# Antibiotic susceptibility was determined by standard disk diffusion (NCCLS Standard M2-T4, 1994) and agar dilution (NCCLS Standard M7-T2, 1994) procedures. Standard powders of antimicrobial agents were kindly provided by the following companies: piperacillin and tazobactam (Lederle Laboratories, Wayne, N.J.); cefoxitin and imipenem, (Merck, Rathway, N.J.); cefotaxime, (Hoechst-Roussel Pharmaceuticals Inc., Somerville, N.J.); ceftazidime, (Glaxo Group Research Ltd., Greenford, England); aztreonam and cefepime, (Bristol-Myers Squibb, Princeton, N.J.). Disks for agar diffusion were obtained from Becton Dickinson Microbiology Systems (Cockeysville, Md.). For quality control purposes, the following quality control strains were run simultaneously with the test organisms E. coli ATCC 25922, Pseudomonas aeruginosa ATCC 27853, E. coli ATCC 35218, and Staphylococcus aureus ATCC 29213. Throughout this study, results were interpreted using NCCLS criteria for disk diffusion (NCCLS Standard M2-T4, 1994) and broth dilution (NCCLS Standard M7-T2, 1994).
# E. aerogenes [3] = type: cell-based, Enterobacter aerogenes
# Protocol: Antibiotic susceptibilities were determined by standard disk-diffusion (NCCLS Standard M2-A6) and agar-dilution (NCCLS Standard M7-A4) procedures. Disks were obtained from Becton Dickinson Microbiology Systems (Cockeysville, Md.). […] Throughout this study, results were interpreted using NCCLS criteria for disk diffusion (NCCLS M2-A6) and broth dilution (NCCLS M7-A4).
# E. aerogenes [4] = experiment: Vitek automated susceptibility system; type: cell-based, Enterobacter aerogenes; settings: the 31 selected E. aerogenes strains
# Source text: Among all E. aerogenes recovered from clinical specimens during an eighteen month period (September 1993 to March 1995), thirty-one E. aerogenes strains showing a resistance phenotype different from that observed with derepressed mutants normally encountered at the Hunter Holmes McGuire Medical Center, Richmond, Va. were selected for this study. The strains selected were intermediate to ceftriaxone but resistant to ceftazidime when tested with the Vitek automated susceptibility system (bioMerieux Vitek, St. Louis, Mo.). Derepressed mutants previously isolated from this center were usually resistant to both ceftriaxone and ceftazidime.
# [5] = test system: E. coli C600N transconjugants; experiment: Susceptibility of transconjugants; type: cell-based, Escherichia coli; settings: E. coli C600N transconjugants of E. aerogenes 187, 200, 220, 184
# Protocol: Antibiotic susceptibilities were determined by standard disk-diffusion (NCCLS Standard M2-A6) and agar-dilution (NCCLS Standard M7-A4) procedures. Disks were obtained from Becton Dickinson Microbiology Systems (Cockeysville, Md.). Disk-diffusion susceptibilities to the following antibiotics were determined, ampicillin; amoxicillin clavulanic acid; aztreonam; cefazolin; cefoxitin; cefuroxime; cefotaxime; ceftriaxone; ceftazidime; cefepime; imipenem; gentamicin; trimethoprim/sulfamethoxazole and ciprofloxacin. […] The following quality control strains were run simultaneously with the test organisms Escherichia coli ATCC 25922, Pseudomonas aeruginosa ATCC 27853, and E. coli ATCC 35218. Throughout this study, results were interpreted using NCCLS criteria for disk diffusion (NCCLS M2-A6) and broth dilution (NCCLS M7-A4).
# […]. The filter paper mating technique with overnight incubation at 37° C. were performed as described previously (Philippon et al., Antimicrob. Agents Chemother., 33:1131-1136 (1989)). Transconjugants were selected on LB (Luria Bertani) agar [Difco (Detroit, Mich.)] plates containing 12 μg per ml nalidixic acid and 20 μg per ml ampicillin.
# [6] = test system: E. coli HB101 transformant (17 kb plasmid); settings: disk diffusion, Tr (17 kb) = transformant E. coli HB101
# [7] = test system: E. coli C600 transconjugant; settings: disk diffusion, Tc = transconjugate E. coli C600
# K. pneumoniae 225 [8] = settings: test drug disk around amoxicillin-clavulanate disk
# K. pneumoniae 225 [9] = experiment: Three-dimensional test (enzymatic inactivation of antibiotics); settings: beta-lactamase-mediated hydrolysis by K. pneumoniae 225, lawn E. coli ATCC 25922
# [10] = molecular target: single beta-lactamase in K. pneumoniae cell extracts (Escherichia coli, UniProt P62593, E102K/R162S); experiment: Spectrophotometric hydrolysis assay on crude beta-lactamase extracts; settings: K. pneumoniae Pit 16 extract, beta-lactamase pI 5.6; 100 μM substrate
# [11] = molecular target: single beta-lactamase in K. pneumoniae cell extracts (Klebsiella pneumoniae, UniProt P0AD64, E235K/G234S); experiment: as above; settings: K. pneumoniae Pit 82 extract, beta-lactamase pI 8.2; 100 μM substrate
# [12] = molecular target: single beta-lactamase in K. pneumoniae cell extracts (Klebsiella pneumoniae, UniProt P0AD64, G234S); experiment: as above; settings: K. pneumoniae Pit 100 extract, beta-lactamase pI 7.6; 100 μM substrate
# [13] = molecular target: single beta-lactamase in E. coli cell extracts (Escherichia coli, UniProt P62593, E102K/R162S); experiment: as above; settings: E. coli Pit 64 extract, beta-lactamase pI 5.6; 100 μM substrate
# [14] = molecular target: single beta-lactamase in P. mirabilis cell extracts (Escherichia coli, UniProt P62593, E102K/R162S); experiment: as above; settings: P. mirabilis Pit 85 extract, beta-lactamase pI 5.6; 100 μM substrate
smiles,measurement,setting,value
CC(C)(O/N=C(\C(=O)N[C@@H]1C(=O)N2C(C(=O)[O-])=C(C[n+]3ccccc3)CS[C@H]12)c1csc(N)n1)C(=O)O [ceftazidime],MIC,K. pneumoniae 225 [1],> 64 µg/mL
same,Zone Size,K. pneumoniae 225 [2],8 mm
same,MIC range,"K. pneumoniae; resistance phenotype Kpn1, 8 strains",>128 µg/mL
same,MIC range,"K. pneumoniae; resistance phenotype Kpn2, 28 strains",4 to 128 µg/mL
same,MIC range,"K. pneumoniae; resistance phenotype Kpn3 (K. pneumoniae Pit 68), 1 strain, listed as caz",4 µg/mL
same,MIC range,"E. coli; resistance phenotype Ec1, 3 strains",>128 µg/mL
same,MIC range,"E. coli; resistance phenotype Ec2, 1 strain",4 µg/mL
same,MIC range,P. mirabilis,16 to 64 µg/mL
same,MIC range,E. aerogenes [3]; 1 E. aerogenes strain with Bush group 1 and group 2be (SHV-3) enzymes,4 µg/mL
same,MIC range,E. aerogenes [3]; 1 E. aerogenes strain with Bush group 1 and group 2be (SHV-5) enzymes,32 µg/mL
same,MIC range,E. aerogenes [3]; 29 E. aerogenes strains with Bush group 1 and group 2be (SHV-4) enzymes,8 to 32 µg/mL
same,susceptibility by MIC,E. aerogenes [3]; all E. aerogenes strains,decreased susceptibility
same,Vitek susceptibility result,E. aerogenes [4],resistant
same,susceptibility after transfer of plasmids encoding SHV beta-lactamase genes,[5],decreased susceptibility
same,Zone Size,[6],33 mm
same,Zone Size,[7],7 mm
same,clavulanate double-disk potentiation test,K. pneumoniae 225 [8],positive
same,three dimensional test,K. pneumoniae 225 [9],positive
same,Hydrolysis,[10],3 nmol of substrate hydrolyzed/m
same,Hydrolysis,[11],0.2 nmol of substrate hydrolyzed/m
same,Hydrolysis,[12],0.1 nmol of substrate hydrolyzed/m
same,Hydrolysis,[13],2 nmol of substrate hydrolyzed/m
same,Hydrolysis,[14],1 nmol of substrate hydrolyzed/m
